Measurements taken from ChEMBL document CHEMBL1124419, “Potential tumor- or organ-imaging agents. 29. Radioiodinated esters and amides of 20-hydroxy- and 20-aminopregn-5-en-3 beta-ols” (J Med Chem, 1989).

Legend:
Settings in all cases: in vivo
Rattus norvegicus [1] = assay: Concentration accumulated in thyroid at 0.5 hr after intravenous administration in rat; type: ADME, organism-based, Thyroid gland
Rattus norvegicus [2] = assay: Concentration accumulated in thyroid at 24 hr r after intravenous administration in rat; type: ADME, organism-based, Thyroid gland
Rattus norvegicus [3] = assay: Concentration accumulated in adrenal cortex at 24 hr r after intravenous administration in rat; type: ADME, organism-based
Rattus norvegicus [4] = assay: Concentration accumulated in blood at 0.5 hr after intravenous administration in rat; type: ADME, organism-based
Rattus norvegicus [5] = assay: Concentration accumulated in blood at 24 hr r after intravenous administration in rat; type: ADME, organism-based
Rattus norvegicus [6] = assay: Concentration accumulated in kidney at 0.5 hr after intravenous administration in rat; type: ADME, organism-based
Rattus norvegicus [7] = assay: Concentration accumulated in kidney at 24 hr r after intravenous administration in rat; type: ADME, organism-based
Rattus norvegicus [8] = assay: Concentration accumulated in liver at 0.5 hr after intravenous administration in rat; type: ADME, organism-based
Rattus norvegicus [9] = assay: Concentration accumulated in liver at 24 hr r after intravenous administration in rat; type: ADME, organism-based
Rattus norvegicus [10] = assay: Concentration accumulated in ovary at 0.5 hr after intravenous administration in rat; type: ADME, organism-based, Female gonad
Rattus norvegicus [11] = assay: Concentration accumulated in ovary at 24 hr r after intravenous administration in rat; type: ADME, organism-based, Female gonad
Rattus norvegicus [12] = assay: Concentration accumulated in adrenal cortex at 0.5 hr after intravenous administration in rat; type: ADME, organism-based

Dose/g (Rattus norvegicus [1]) [%]	Dose/g (Rattus norvegicus [2]) [%]	Dose/g (Rattus norvegicus [3]) [%]	Dose/g (Rattus norvegicus [4]) [%]	Dose/g (Rattus norvegicus [5]) [%]	Dose/g (Rattus norvegicus [6]) [%]	Dose/g (Rattus norvegicus [7]) [%]	Dose/g (Rattus norvegicus [8]) [%]	Dose/g (Rattus norvegicus [9]) [%]	Dose/g (Rattus norvegicus [10]) [%]	Dose/g (Rattus norvegicus [11]) [%]	Dose/g (Rattus norvegicus [12]) [%]	Compound
4.96	511.17	0.31	0.59	0.05	1.29	0.11	3.92	0.2	1.49	0.26	10.04	C[C@H](OC(=O)c1ccccc1I)C1CCC2C3CC=C4CC(O)CCC4(C)C3CCC21C (stereo not given in full)
2.2	51.14	0.1	0.1	< 0.01	0.41	0.01	3.85	0.06	0.58	0.09	2.49	C[C@H](NC(=O)c1ccccc1I)C1CCC2C3CC=C4CC(O)CCC4(C)C3CCC21C (stereo not given in full)
2.93	52.36	1.23	0.25	0.02	1.59	0.05	6.04	0.11	1.67	0.26	6.83	C[C@@H](OC(=O)c1ccccc1I)C1CCC2C3CC=C4CC(O)CCC4(C)C3CCC21C (stereo not given in full)
1.4	24.65	0.55	0.08	< 0.01	0.47	0.02	1.28	0.22	0.53	0.07	1.66	C[C@@H](NC(=O)c1ccccc1I)C1CCC2C3CC=C4CC(O)CCC4(C)C3CCC21C (stereo not given in full)

Compound	Dose/g (Rattus norvegicus [1]) [%]	Dose/g (Rattus norvegicus [2]) [%]	Dose/g (Rattus norvegicus [3]) [%]	Dose/g (Rattus norvegicus [4]) [%]	Dose/g (Rattus norvegicus [5]) [%]	Dose/g (Rattus norvegicus [6]) [%]	Dose/g (Rattus norvegicus [7]) [%]	Dose/g (Rattus norvegicus [8]) [%]	Dose/g (Rattus norvegicus [9]) [%]	Dose/g (Rattus norvegicus [10]) [%]	Dose/g (Rattus norvegicus [11]) [%]	Dose/g (Rattus norvegicus [12]) [%]
CC(C)CCCC(C)C1CCC2C3CC(CI)C4=C(CCC(O)C4)C3CCC12C (stereo not given)	1.37	111.3	116.21	2.35	0.87	0.45	0.76	4.57	1.34	4.1	33.1	17.89
